Reference: patent US6365634B1, “Naturally occurring compounds and their derivatives as cyclooxygenase 2 and/or 5-lipoxygenase inhibitors” (C-P Technology Limited Partnership, priority 1997, dated 2002)

Legend:
[1] = test system: human keratinocyte PGE2 production; assay: Cell-based COX II assay: PGE2 production by cultured human foreskin keratinocytes (enzyme immunoassay); conditions: 5, 1.0, 0.2 and 0.04 uM, 24 hours, high calcium medium
Procedure: The ability of dehydroabietic acid methyl ester to inhibit the enzymatic activities of COX II and 5-LO was tested using primary cultures of human foreskin keratinocytes. Briefly, human keratinocytes were plated in 48-well plates (Nunc) at an initial density of 2.5×10^4 cells per well. The cultures were maintained in medium 154XP (Cascade Biologics) to which human keratinocyte growth supplement (Cascade Biologics) was added. Cultures were plated initially in medium 154XP containing 0.07 mM CaCl2. Upon reaching […] confluency, the media was exchanged with high calcium medium 154XP containing 1.2 mM CaCl2. Previous studies have shown that an increase in extracellular Ca^2+concentration induces the differentiation of cultured keratinocytes with a concomitant increase in the expression of COX II protein and COX II mRNA with no apparent effect on COX I expression (Leong, J., Hughes-Fulford, M., Rakhlin, A., Maclouf, J., and Goldyne, M., (1996), Exp. Cell Res., V224, p79). Twenty-four hours after switching to the high calcium media, duplicate wells were treated with dehydroabietic acid methyl ester serially diluted in ethanol to produce final concentrations of 5, 1.0, 0.2, and 0.04 uM. Companion cultures were treated with an identical dilution series of the Merck COX II-specific inhibitor DFU. Twenty-four hours later, samples were removed from each treated well (as well as vehicle-treated control wells) and the amount of PGE2 (a product of the COX II pathway) was quantified using a PGE2-specific enzyme immunoassay (Cayman Chemical). ), As was done with the previously described biochemical assays (COX I, COX II, 5-LO, and 15-LO), the percent inhibition was calculated based on a comparison between vehicle treated control cultures and cultures treated with dehydroabietic acid methyl ester or DFU (see Fractionation and Bioassay Analysis of Fractions Derived from Extract-8 above).
The ability of 4-cumylphenol to inhibit the enzymatic activity of COX II was tested using primary cultures of human foreskin keratinocytes. These cell studies were performed in an identical manner to the studies described in Example 6. […] Twenty-four hours later, samples were removed from each treated well (as well as vehicle-treated control wells) and the amount of PGE2 (a product of the COX II pathway) was quantified using a PGE2-specific enzyme immunoassay (Cayman Chemical). ), as was done with the previously described COX I, COX II, and 15-LO biochemical assays (see Example 2B). The percent inhibition was calculated based on a comparison between vehicle treated control cultures and cultures treated with 4-cumylphenol or DFU. […]
To evaluate the biological activities of 3-methoxy aniline, sufficient quantities of the compound were synthesized as detailed in Example 1C (above). […]

[2] = test system: human keratinocyte LTB4 production; assay: Cell-based 5-LO assay: LTB4 production by cultured human keratinocytes (enzyme immunoassay); conditions: 5, 1.0, 0.2 and 0.04 uM, 24 hours, high calcium medium
Description: In addition to assessing the effect of dehydroabietic acid methyl ester on the production of PGE2 by human keratinocytes, the human keratinocyte culture system was also used to assess for the inhibition of LTB4 production. Keratinocytes have not been used as extensively as other cell types for 5-LO studies, however, human keratinocytes produce appreciable amounts of LTB4 and production of this eicosanoid by cultured keratinocytes is inhibited by known inhibitors of 5-LO (see FIG. 11). To assess for inhibition of LTB4 production, human keratinocytes were cultured as described above. Following introduction of the high calcium media, the identical dilution series of dehydroabietic acid methyl ester as described above in the PGE2 study was added to duplicate wells of keratinocytes. Twenty-four hours later culture media samples were removed from each well and the amount of LTB4 in each sample determined using an enzyme immunoassay specific for LTB4 (Cayman Chemical). As was done with the PGE2 assay described above, the percent inhibition was calculated based on a comparison between vehicle treated control cultures and cultures treated with dehydroabietic acid methyl ester or Rev 5901 (a specific 5-LO inhibitor; Cayman Chemical).

COC(=O)[C@]1(C)CCC[C@]2(C)c3ccc(C(C)C)cc3CC[C@@H]12 [Dehydroabietic acid methyl ester, dehydroabietic acid methyl ester]
inhibition of PGE2 production by cultured human keratinocytes [1]: inhibited the production of PGE2 | inhibition of LTB4 production by cultured human keratinocytes [2]: inhibited the production of LTB4 by cultured human keratinocytes in a dose-dependent manner

CC(C)(c1ccccc1)c1ccc(O)cc1 [4-Cumylphenol, 4-cumylphenol]
inhibition of PGE2 production by cultured human keratinocytes [1]: inhibited the production of PGE2
